Experimental data reported in patent US20250353820A1, “ANTIVIRAL PYRAZOLOPYRIDINONE COMPOUNDS” (Novartis AG, priority 2019, published 2025).
pEC50, pIC50: −log10 of the molar value. Where two headings read alike, the source gives them in different places.

Tests used:
[1] = system: Luciferase-encoding HCMV (AD169 strain); assay: microbe, parasite or virus in culture; format: cell-based
[2] = molecular target: human HSV DNA polymerase UL30 (Human herpesvirus 1 (strain 17) (HHV-1) (Human herpes simplex virus 1), UniProt P04293); assay: biochemical; conditions: 625 pM HSV polymerase, 20 minutes at room temperature; read-out: HSV-polymerase Biochemical IC50
[3] = read-out: CMV-Luc Cellular EC50, NN-NHDF cells, MOI of 1, 72 hrs

Row | Structure (SMILES) | pEC50 [1, 3] | pIC50 [2] | pEC50 ([1]; NN-NHDF cells, MOI of 1, 72 hrs, read-out: CMV-Luc Cellular EC50) | pEC50 ([1]; Human betaherpesvirus 5, AD169, 72 h, read-out: CMV-Luc Cellular EC50, NN-NHDF cells, MOI of 1, 72 hrs)
1 | CC(O)CC(C)(C)S(=O)(=O)C1(CN2CCc3c(C(=O)NCc4ccc(C#N)cc4)nn(C)c3C2=O)CC1 (single isomer, unassigned) [Example 116, (R)- or (S)—N-(4-Cyanobenzyl)-6-((1-((4-hydroxy-2-methylpentan-2-yl)sulfonyl)cyclopropyl)methyl)-1-methyl-7-oxo-4,5,6,7-tetrahydro-1H-pyrazolo[3,4-c]pyridine-3-carboxamide] | 7.41 |  |  | 
2 | Cn1nc(C(=O)NCc2ccc(C#N)cc2)c2c1C(=O)N(CC1(S(=O)(=O)N3CCC(C)(O)C3)CC1)CC2 (single isomer, unassigned) [Example 131, (R)- or (S)-N-(4-Cyanobenzyl)-6-((1-((3-hydroxy-3-methylpyrrolidin-1-yl)sulfonyl)cyclopropyl)methyl)-1-methyl-7-oxo-4,5,6,7-tetrahydro-1H-pyrazolo[3,4-c]pyridine-3-carboxamide] | 6.65 | 6.79 |  | 
3 | COCC(C)(CO)S(=O)(=O)C1(CN2CCc3c(C(=O)NCc4ccc(C#N)cc4)nn(C)c3C2=O)CC1 (single isomer, unassigned) [Example 182, (R)- or (S)—N-(4-Cyanobenzyl)-6-((1-((1-hydroxy-3-methoxy-2-methylpropan-2-yl)sulfonyl)cyclopropyl)methyl)-1-methyl-7-oxo-4,5,6,7-tetrahydro-1H-pyrazolo[3,4-c]pyridine-3-carboxamide] | 7.30 |  |  | 
4 | Cn1nc(C(=O)NCc2ccc(Cl)cc2)c2c1C(=O)N(CC1(S(=O)(=O)C(C)(CN)CO)CC1)CC2 (single isomer, unassigned) [Example 187] | 7.15 | 7.07 |  | 
5 | Cn1nc(C(=O)NCc2ccc(Cl)cc2)c2c1C(=O)N(CC1(S(=O)(=O)C(C)(CN)CO)CC1)CC2 (single isomer, unassigned) [Example 188] | 6.80 | 6.97 |  | 
6 | Cn1nc(C(=O)NCc2ccc(C#N)cc2)c2c1C(=O)N(CC1(S(=O)(=O)C(C)(C)C(O)C(C)(C)N)CC1)CC2 (single isomer, unassigned) [Example 211, (R)- or (S)-6-((1-((4-Amino-3-hydroxy-2,4-dimethylpentan-2-yl)sulfonyl)cyclopropyl)methyl)-N-(4-cyanobenzyl)-1-methyl-7-oxo-4,5,6,7-tetrahydro-1H-pyrazolo[3,4-c]pyridine-3-carboxamide] | 7.55 |  |  | 
7 | Cn1nc(C(=O)NCc2ccc(C#N)cc2)c2c1C(=O)N(CC1(S(=O)(=O)C(C)(C)C(O)C(C)(C)N)CC1)CC2 (single isomer, unassigned) [Example 212, (R)- or (S)-6-((1-((4-Amino-3-hydroxy-2,4-dimethylpentan-2-yl)sulfonyl)cyclopropyl)methyl)-N-(4-cyanobenzyl)-1-methyl-7-oxo-4,5,6,7-tetrahydro-1H-pyrazolo[3,4-c]pyridine-3-carboxamide] | 8.15 |  |  | 
8 | CC(O)Cn1nc(C(=O)NCc2ccc(C#N)cc2)c2c1C(=O)N(CC1(S(=O)(=O)C3CC3)CC1)CC2 (single isomer, unassigned) [Example 226, (R)- or (S)—N-(4-Cyanobenzyl)-6-((1-(cyclopropylsulfonyl)cyclopropyl)methyl)-1-(2-hydroxypropyl)-7-oxo-4,5,6,7-tetrahydro-1H-pyrazolo[3,4-c]pyridine-3-carboxamide] | 7.36 |  |  | 
9 | Cn1nc(C(=O)NCc2ccc(Cl)cc2)c2c1C(=O)N(CC1(S(=O)(=O)C(C)(CN)CO)CC1)CC2 (stereo not drawn) [Example 186] |  | 7.43 | 7.05 | 
10 | Cn1nc(C(=O)NCc2ccc(C#N)cc2)c2c1C(=O)N(CC1(S(=O)(=O)C(C)(C)[C@H](O)CO)CC1)CC2 [Example 193, (R)—N-(4-cyanobenzyl)-6-((1-((3,4-dihydroxy-2-methylbutan-2-yl)sulfonyl)cyclopropyl)methyl)-1-methyl-7-oxo-4,5,6,7-tetrahydro-1H-pyrazolo[3,4-c]pyridine-3-carboxamide] |  | 7.96 |  | 7.66
